According to PMC5011342, “A high throughput drug screening assay to identify compounds that promote oligodendrocyte differentiation using acutely dissociated and purified oligodendrocyte precursor cells” (BMC Research Notes, 2016):
Where two headings read alike, the source gives them in different places.

Assays:
expanded OPCs = assay: cells; conditions: for viability at 0.1 µM / viability at 1 µM / viability at 10 µM: Rattus norvegicus, 72 h
How it was run: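 Expanded OPCs seeded at 10,000 cells/well in differentiation media, then exposed to NCC library compounds at 10, 1 and 0.1 µM (quadruplicate, 0.1% DMSO) for three days. Viability read as alamarBlue fluorescence (560/590 nm) after 4 h at 37 °C; tunicamycin 5 ng/ml served as toxicity control.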

[1] = system: acutely dissociated and purified rat OPCs; assay: Acute OL differentiation assay (MBP expression/cell, immunofluorescent image quantification); type: cell-based; conditions: sheet "All OLga data"
How it was run: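 Oligodendrocyte precursor cells were enriched from P6-P7 Sprague–Dawley rat brains by immunopanning (RAN-2 and GalC depletion, O4 selection), plated at 5000 cells/well in serum-free, mitogen-free differentiation media on PDL/laminin 96-well view plates, centrifuged at 200×g, and pre-incubated 1–2 h before test compounds were added in quadruplicate. On DIV4, cells were fixed, stained for MBP and DAPI, imaged automatically, and MBP expression per cell was quantified.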

[2] = read-out: 0.1 µM (% DMSO), alamarBlue viability of expanded OPCs, compound at 0.1 µM, sheet All Tox data
[3] = read-out: 1 µM (% DMSO), alamarBlue viability of expanded OPCs, compound at 1 µM, sheet All Tox data
[4] = read-out: 10 µM (% DMSO), alamarBlue viability of expanded OPCs, compound at 10 µM, sheet All Tox data
[5] = alamarBlue viability of expanded OPCs, compound at 0.1 µM, relative to DMSO control
[6] = alamarBlue viability of expanded OPCs, compound at 1 µM, relative to DMSO control
[7] = alamarBlue viability of expanded OPCs, compound at 10 µM, relative to DMSO control
[8] = Rattus norvegicus, 2 uM test compound, relative to quetiapine, read-out: OL differentiation, 2 uM (% Quet)
[9] = Rattus norvegicus, 10 uM test compound, relative to quetiapine, read-out: OL differentiation, 10 uM (% Quet)
[10] = Rattus norvegicus, test compound at 2 uM, MBP expression relative to quetiapine, NCC library screen, read-out: 2 uM (% Quet)
[11] = Rattus norvegicus, test compound at 10 uM, MBP expression relative to quetiapine, NCC library screen, read-out: 10 uM (% Quet)
[12] = read-out: 0.1 µM (% DMSO), alamarBlue viability, NCC library compound at 0.1 µM, sheet "All Tox data"
[13] = read-out: 1 µM (% DMSO), alamarBlue viability, NCC library compound at 1 µM, sheet "All Tox data"
[14] = read-out: 10 µM (% DMSO), alamarBlue viability, NCC library compound at 10 µM, sheet "All Tox data"
[15] = Rattus norvegicus, test compound at 2 uM, NCC library screen, relative to quetiapine, read-out: 2 uM (% Quet)
[16] = Rattus norvegicus, test compound at 10 uM, NCC library screen, relative to quetiapine, read-out: 10 uM (% Quet)
[17] = Rattus norvegicus, 0.4 uM test compound, relative to quetiapine, read-out: OL differentiation, 0.4 uM (% Quet)

Row | SMILES | viability at 0.1 µM (expanded OPCs; [2]) [%] | viability at 1 µM (expanded OPCs; [3]) [%] | viability at 10 µM (expanded OPCs; [4]) [%] | activation at 2 µM [1, 8] [%] | activation at 10 µM [1, 9] [%] | viability at 0.1 µM (expanded OPCs; [12]) [%] | viability at 1 µM (expanded OPCs; [13]) [%] | viability at 10 µM (expanded OPCs; [14]) [%] | further results
1 | Nc1ccn([C@@H]2CS[C@H](CO)O2)c(=O)n1 [Lamivudine] | 87.3 | 96 | 113 | -2.4 | -27.9 | – | – | – | 0.1 µM (% DMSO) (expanded OPCs; [5]): 94.3 % DMSO; 1 µM (% DMSO) (expanded OPCs; [6]): 88.1 % DMSO; 10 µM (% DMSO) (expanded OPCs; [7]): 79.4 % DMSO; activation at 2 µM [1, 10]: 2.9%; activation at 10 µM [1, 11]: -9.8%
2 | Nc1nnc(-c2cccc(Cl)c2Cl)c(N)n1 [Lamotrigine] | 94.8 | 104 | 99.5 | -14.6 | -8.7 | – | – | – | –
3 | Cc1c(OCC(F)(F)F)ccnc1C[S+]([O-])c1nc2ccccc2[nH]1 (stereo not shown) [Lansoprazole] | – | – | – | – | – | 94.2 | 86.3 | 99.9 | activation at 2 µM [1, 15]: -3.1%; activation at 10 µM [1, 16]: -72%
4 | CC(C)OC(=O)CCC/C=C\C[C@@H]1[C@@H](CC[C@@H](O)CCc2ccccc2)[C@H](O)C[C@@H]1O [Latanoprost] | 85.2 | 91.5 | 81.4 | -37.3 | -143 | – | – | – | –
5 | C#C[C@]1(O)CC[C@H]2[C@@H]3CCC4=CC(=O)CC[C@@H]4[C@H]3CC[C@@]21CC [Levonorgestrel] | 97.5 | 88 | 91.5 | 7.5 | -8.6 | – | – | – | –
6 | CN1CC[C@]23CCCC[C@H]2[C@H]1Cc1ccc(O)cc13 [Levorphanol] | 77.4 | 83.4 | 74 | -6.9 | 17 | – | – | – | –
7 | CCN(CC)CC(=O)Nc1c(C)cccc1C [Lidocaine] | 84.8 | 86 | 85.5 | -0.03 | 17.6 | – | – | – | –
8 | CCC[C@@H]1C[C@@H](C(=O)N[C@@H]([C@H]2O[C@H](SC)[C@H](O)[C@@H](O)[C@H]2O)[C@@H](C)O)N(C)C1 [Lincomycin] | – | – | – | – | – | – | – | – | 0.1 µM (% DMSO) (expanded OPCs; [5]): 93.6 % DMSO; 1 µM (% DMSO) (expanded OPCs; [6]): 94.1 % DMSO; 10 µM (% DMSO) (expanded OPCs; [7]): 87.7 % DMSO; activation at 2 µM [1, 10]: 12.6%; activation at 10 µM [1, 11]: -2.9%
9 | O=C1N(c2ccccc2)c2ccccc2C1(Cc1ccncc1)Cc1ccncc1 [Linopirdine] | – | – | – | – | – | 90.7 | 94.5 | 86.2 | activation at 2 µM [1, 15]: -7.9%; activation at 10 µM [1, 16]: -12.7%
10 | CN1[C@@H](CC(=O)c2ccccc2)CCC[C@H]1C[C@H](O)c1ccccc1 [Lobeline] | – | – | – | -5 | 0.65 | 96.9 | 89.9 | 64.3 | –
11 | CN(CCCN1c2ccccc2CCc2ccccc21)CC(=O)c1ccc(Cl)cc1 [Lofepramine] | 97.9 | 79.6 | 47.1 | -3.7 | – | – | – | – | activation at 0.4 µM [1, 17]: 1.3%
12 | COc1ccc(CN2CCN(C(c3ccc(F)cc3)c3ccc(F)cc3)CC2)c(OC)c1OC [Lomerizine] | – | – | – | -3.9 | – | 92.5 | 58.5 | 11 | activation at 0.4 µM [1, 17]: 0.09%
13 | CN(C)C(=O)C(CCN1CCC(O)(c2ccc(Cl)cc2)CC1)(c1ccccc1)c1ccccc1 [Loperamide] | – | – | – | – | – | – | – | – | 0.1 µM (% DMSO) (expanded OPCs; [5]): 70.2 % DMSO; 1 µM (% DMSO) (expanded OPCs; [6]): 40.0 % DMSO; 10 µM (% DMSO) (expanded OPCs; [7]): 11.4 % DMSO; activation at 0.08 µM ([1]; Rattus norvegicus, test compound at 0.08 uM, NCC library screen, relative to quetiapine, read-out: 0.08 uM (% Quet)): -0.19%; activation at 0.4 µM ([1]; Rattus norvegicus, test compound at 0.4 uM, NCC library screen, relative to quetiapine, read-out: 0.4 uM (% Quet)): -17.5%
14 | CCOC(=O)N1CCC(=C2c3ccc(Cl)cc3CCc3cccnc32)CC1 [Loratadine] | 90.8 | 77.7 | 13.9 | -36.8 | – | – | – | – | activation at 0.4 µM [1, 17]: 5.6%
15 | O=C1Nc2ccc(Cl)cc2C(c2ccccc2Cl)=NC1O (stereo not shown) [Lorazepam] | – | – | – | – | – | 90.5 | 81.6 | 71.2 | activation at 2 µM [1, 15]: -21.5%; activation at 10 µM [1, 16]: -31.2%
16 | CCCCc1nc(Cl)c(CO)n1Cc1ccc(-c2ccccc2-c2nn[nH]n2)cc1 [Losartan] | 97.6 | 91.6 | 102 | 5.2 | -7.3 | – | – | – | –
17 | CCOC(=O)O[C@]1(C(=O)OCCl)CC[C@H]2[C@@H]3CCC4=CC(=O)C=C[C@]4(C)[C@H]3[C@@H](O)C[C@@]21C [Loteprednol etabonate] | – | – | – | -10.9 | -29.2 | 104 | 98.4 | 86.4 | –
18 | CC[C@H](C)C(=O)O[C@H]1C[C@@H](C)C=C2C=C[C@H](C)[C@H](CC[C@@H]3C[C@@H](O)CC(=O)O3)[C@H]21 [Lovastatin] | – | – | – | – | – | – | – | – | 0.1 µM (% DMSO) (expanded OPCs; [5]): 147.6 % DMSO; 1 µM (% DMSO) (expanded OPCs; [6]): 99.7 % DMSO; 10 µM (% DMSO) (expanded OPCs; [7]): 46.0 % DMSO; activation at 0.4 µM ([1]; Rattus norvegicus, test compound at 0.4 uM, MBP expression relative to quetiapine, NCC library screen, read-out: 0.4 uM (% Quet)): -70.9%; activation at 2 µM [1, 10]: -93.2%
19 | CN1CCN(C2=Nc3ccccc3Oc3ccc(Cl)cc32)CC1 [Loxapine] | 85.7 | 71.4 | 29 | -18.5 | – | – | – | – | activation at 0.4 µM [1, 17]: -5.9%
20 | CC(C)c1ccc2c(c1)c(SC(C)(C)C)c(CC(C)(C)C(=O)O)n2Cc1ccc(Cl)cc1 [MK 886] | – | – | – | – | – | – | – | – | 0.1 µM (% DMSO) (expanded OPCs; alamarBlue viability, NCC library compound at 0.1 µM, sheet "All Tox data"): 97.3 % DMSO; 1 µM (% DMSO) (expanded OPCs; alamarBlue viability, NCC library compound at 1 µM, sheet "All Tox data"): 107.0 % DMSO; 10 µM (% DMSO) (expanded OPCs; alamarBlue viability, NCC library compound at 10 µM, sheet "All Tox data"): 10.8 % DMSO; 0.4 uM (% Quet) ([1]; test compound at 0.4 uM, NCC library screen, relative to quetiapine): 51.1 % Quet; 2 uM (% Quet) ([1]; test compound at 2 uM, NCC library screen, relative to quetiapine): -93.5 % Quet
21 | NCc1ccc(S(N)(=O)=O)cc1 [Mafenide] | – | – | – | – | – | – | – | – | 0.1 µM (% DMSO) (expanded OPCs; [5]): 97.9 % DMSO; 1 µM (% DMSO) (expanded OPCs; [6]): 90.1 % DMSO; 10 µM (% DMSO) (expanded OPCs; [7]): 86.7 % DMSO; activation at 2 µM [1, 10]: 28.6%; activation at 10 µM [1, 11]: 10%
22 | Cc1occc(=O)c1O [Maltol] | – | – | – | – | – | 83.5 | 91.1 | 84.9 | activation at 2 µM [1, 15]: -7%; activation at 10 µM [1, 16]: 8.2%
